Reference: patent US10086028B2, “Method for treating vascular inflammation, improving skin beauty and improving male sexual function using ginseng berry” (AMOREPACIFIC CORPORATION, priority 2007, dated 2018)

Assays:
[1] = system: melanocytes (MeI-Ab cells); assay: Inhibition of melanin generation in mouse melanocytes; type: cell-based, C57BL/6 mouse; conditions: added for 3 consecutive days; sample 10 μg/mL
Description: Inhibition of melanin generation in mouse melanocytes was evaluated in order to confirm the effect of the ginseng berry extract of Example 1 of inhibiting melanin generation.
First, melanocytes (MeI-Ab cells) derived from C57BL/6 mouse [Dooley, T. P. et al, Skin Pharmacol., 7, pp. 188-200] were cultured in Dulbecco's modified Eagle's medium (DMEM) containing 10% FBS, 100 nM 2-O-tetradecanoylphorbol-13-acetate and 1 nM cholera toxin under the condition of 37° C., 5% CO2. The cultured MeI-Ab cells were separated using 0.25% trypsin-EDTA, and cultured on a 24-well plate to a concentration of 10^5 cells/well. Starting from day 2, the ginseng berry extract of Example 1 (1 μg/mL, 10 μg/mL and 100 μg/mL), the ginseng berry saponin concentrate of Example 2 (10 μg/mL), the ginseng root extract of Comparative Example 1 (10 μg/mL) or ginsenosides Rg1, Rg2, Rh1 or Re (10 μg/mL) was added for 3 consecutive days. Hydroquinone (10 μg/mL) was used as a positive control substance. Then, after removing the medium and washing with PBS, the cells were dissolved with 1 N sodium hydroxide. Absorbance was measured at 400 nm, and melanin generation inhibition ratio was calculated by Equation 3.

[2] = system: endothelial cells (HUVEC); assay: Increase of NO generation in endothelial cells (Test Example 12); type: cell-based
Description: Endothelial cells were adhered on a gelatin-coated 24-well plate, with a density of 2.5×10^4 cells/well. The cells were cultured for 12 hours using a growth medium. The endothelial cells were pre-treated for 12 hours, using the ginseng berry extract, the ginseng berry saponin concentrate or the ginseng root extract (Examples 1-2 and Comparative Example 1). Then, they, including a non-treated group, were treated with 10 μmol/L DAF-FM diacetate (Molecular Probe, Oreg.) at 37° C. for 30 minutes in an FBS-free M199 medium. Subsequently, the endothelial cells were washed 3 times with an FBS-free M199 medium, put in a parallel plate flow chamber, and stimulated with light isolated from a mercury lamp. Excitation wavelength was 488 nm. Fluorescence of 515 nm is emitted when DAF binds with NO.
Increase of generation of NO, which is known as an important signal transduction substance related with penile erection, in endothelial cells was observed after treating with the ginseng berry extract. Experiment was carried out in a manner substantially the same as that of Test Example 2, but L-arginine was treated together with the ginseng root extract of Comparative Example 1 and the ginseng berry extract of Example 1. […]

[3] = system: human HaCaT keratinocytes; assay: Antioxidative effect: removal of UV-generated ROS in HaCaT keratinocytes; type: cell-based; conditions: ROS generated by UV in HaCaT; sample 10 μg/mL (Trolox given as (10))
Excerpt: Antioxidative effect of the ginseng berry extract was investigated by comparing the ability of removing reactive oxygen species (ROS) generated in human HaCaT keratinocytes by ultraviolet (UV) radiation.

[4] = system: matrix metalloproteinase I (MMP-1); assay: Inhibition of UVB-induced MMP-1 expression in human fibroblasts (ELISA); type: cell-based; conditions: UVB 40 mJ/cm^2, 2nd day, relative to UV control; 10 ng/mL
Description: Human fibroblasts were cultured on a 12-well plate incubator to a concentration of 10^5 cells/well. Then, after irradiating UVB at 40 mJ/cm^2, the medium was replaced by one including the ginseng berry extract of Example 1 (1 μg/mL and 10 μg/mL), the ginseng berry saponin concentrate of Example 2 (10 μg/mL), the ginseng root extract of Comparative Example 1 (10 μg/mL) or ginsenosides Rg1, Rg2, Rh1 or Re (10 μg/mL). 10 ng/mL TGF-β was used as a positive control substance. On the 2nd day of culturing, the cells were harvested and the quantity of produced matrix metalloproteinase I (MMP-1) was analyzed using ELISA. The result was calculated as a relative value with respect to the control group, which was irradiated with UV without treating with a test substance.

[5] = system: type I procollagen; assay: Type I procollagen assay in human fibroblasts (ELISA); type: cell-based; conditions: 3rd day, 10 ng/mL
Description: Human fibroblasts were cultured on a 12-well plate incubator to a concentration of 10^5 cells/well. Then, the medium was replaced by one including the ginseng berry extract of Example 1 (1 μg/mL and 10 μg/mL), the ginseng berry saponin concentrate of Example 2 (10 μg/mL), the ginseng root extract of Comparative Example 1 (10 μg/mL) or ginsenosides Rg1, Rg2, Rh1 or Re (10 μg/mL). 10 ng/mL transforming growth factor β (TGF-β) was used as a positive control substance.
On the 3rd day of culturing, the cells were harvested and the quantity of produced type I procollagen was analyzed using ELISA. The result was calculated as a relative value with respect to the negative control group, which was not treated with a test substance.

In the case of Oc1ccc(O)cc1 [Hydroquinone], the “Melanin generation inhibition ratio (%)” value [1] is reported as 39%.

For N=C(N)NCCC[C@H](N)C(=O)O [L-Arginine], the “increased NO generation with respect to the negative control group” value ([2]; 250 μM) was “about 2.7 times” and the “increased NO generation with respect to the negative control group” value ([2]; 500 μM) was roughly 5.5 times.

With Cc1c(C)c2c(c(C)c1O)CCC(C)(C(=O)O)O2 (stereo not drawn) [Trolox] the “Antioxidative effect (%)” value [3] was 33%.

With transforming growth factor β [TGF-β] the “MMP-1 expression (%)” value [4] was 65% and the “Procollagen activity relative to negative control (%)” value [5] was 145%.
